Experimental data: patent US6617438B1, “Oligoribonucleotides with enzymatic activity” (Sirna Therapeutics, Inc., priority 1997, dated 2003)
Several values for one entry are separate records, joined by “and”; a condition that tells them apart may be missing. Equal entries are not always repeated. Where two headings read alike, the source gives them in different places. Marks after values point to notes of the source that are not given here.

How the values were obtained:
[1] = biological target: T1, Bacteriophage T7 RNA polymerase (wild type) (Escherichia phage T7, UniProt P00573); assay: biochemical; assay type: biochemical; conditions: for activity at 2000 µM: read-out: % ribo control
T1 construct: purchased Boehringer Mannheim
T1 sequence (P00573 whole entry): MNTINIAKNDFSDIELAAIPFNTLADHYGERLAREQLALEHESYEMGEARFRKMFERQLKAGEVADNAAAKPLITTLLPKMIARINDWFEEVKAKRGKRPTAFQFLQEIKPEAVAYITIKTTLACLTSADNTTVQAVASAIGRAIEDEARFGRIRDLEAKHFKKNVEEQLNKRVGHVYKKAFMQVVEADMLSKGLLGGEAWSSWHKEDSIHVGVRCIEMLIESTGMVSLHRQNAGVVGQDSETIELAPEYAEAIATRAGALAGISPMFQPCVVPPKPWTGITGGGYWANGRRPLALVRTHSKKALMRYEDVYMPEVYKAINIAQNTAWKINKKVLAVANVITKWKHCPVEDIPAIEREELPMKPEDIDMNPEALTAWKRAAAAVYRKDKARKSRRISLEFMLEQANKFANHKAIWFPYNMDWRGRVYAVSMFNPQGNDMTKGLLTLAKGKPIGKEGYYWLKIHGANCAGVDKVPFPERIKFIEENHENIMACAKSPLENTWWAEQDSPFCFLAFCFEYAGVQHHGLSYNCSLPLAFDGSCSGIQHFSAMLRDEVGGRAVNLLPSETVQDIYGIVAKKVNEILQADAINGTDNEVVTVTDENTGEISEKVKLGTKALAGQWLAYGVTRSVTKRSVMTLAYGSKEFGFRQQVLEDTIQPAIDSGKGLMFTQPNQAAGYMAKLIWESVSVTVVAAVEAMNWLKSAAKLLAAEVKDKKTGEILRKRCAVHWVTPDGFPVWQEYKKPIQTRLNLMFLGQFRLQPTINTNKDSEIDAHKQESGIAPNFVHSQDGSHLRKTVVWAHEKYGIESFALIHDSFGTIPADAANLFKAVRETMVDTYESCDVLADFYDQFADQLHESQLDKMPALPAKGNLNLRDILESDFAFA
Method: Bacteriophage T7 RNA polymerase was purchased from Boehringer Mannheim at 0.4 U/μL concentration. Applicant used the commercial buffer supplied with the enzyme and 0.2 μCi alpha-^32P NTP in a 50 μL reaction with nucleotides triphosphates at 2 mM each. The template was a double-stranded PCR fragment, which was used in previous screens. Reactions were carried out at 37° C. for 1 hour. Ten μL of the sample was run on a 7.5% analytical PAGE and bands were quantitated using a Phosphorlmager.

[2] = biological target: T2, Y639F mutant T7 polymerase (Escherichia phage T7, UniProt P00573, Y639F); assay type: biochemical, bacteriophage T7
T2 sequence (P00573 whole entry Y639F, looked up): as the sequence (P00573 whole entry) above, with Y639F counted along it

[3] = biological target: T2, Y639F mutant T7 polymerase; assay type: biochemical, bacteriophage T7; remark: listed apart in the source
[4] = system: BT-474 xenografts; conditions: combination study, dose not given; cited from earlier work
[5] = high-risk patients; cited from earlier work
[6] = COND# 1: 20 mM MgCl2, 10% methanol, 1 mM LiCl, no PEG, 25° C.
[7] = COND# 2: 20 mM MgCl2, 10% methanol, 1 mM LiCl, 4% PEG, 25° C.
[8] = COND# 3: 12 mM MgCl2, 4% PEG, 25° C.
[9] = COND# 4: 12 mM MgCl2, 10% methanol, 4% PEG, 25° C.
[10] = COND# 5: 12 mM MgCl2, 1 mM LiCl, 4% PEG, 25° C.
[11] = COND# 6: 12 mM MgCl2, 10% methanol, 1 mM LiCl, 4% PEG, 25° C.
[12] = COND# 7: 20 mM MgCl2, 10% methanol, 1 mM LiCl, no PEG, 37° C.
[13] = COND# 8: 20 mM MgCl2, 10% methanol, 1 mM LiCl, 4% PEG, 37° C.
[14] = COND# 9: 12 mM MgCl2, 4% PEG, 37° C.
[15] = COND# 10: 12 mM MgCl2, 10% methanol, 4% PEG, 37° C.
[16] = COND# 11: 12 mM MgCl2, 1 mM LiCl, 4% PEG, 37° C.
[17] = COND# 12: 12 mM MgCl2, 10% methanol, 1 mM LiCl, 4% PEG, 37° C.
[18] = wild type T7 polymerase, commercial buffer, 37° C., 1 hour, label GTP
[19] = together with 2′-his-UTP, rATP and rGTP, condition number 9
[20] = together with rUTP, condition number 9
[21] = together with 2′-his-UTP and 2′-amino-CTP, same buffer (condition 9)
[22] = together with rUTP and rCTP, same buffer (condition 9)
[23] = wild type T7 polymerase, commercial buffer, 37° C., 1 hour, label ATP

For 2′-F—GTP, which “% ribo control” value [1] is on record?
Its value is 4%.

With 2′-dGTP as the molecule, how does the “% ribo control” value [1] read?
The value was 3%.

For 2′-deoxy-2′-amino-CTP [2′-NH2—CTP], which “full-length transcript, percent compared to all-rNTP control” value (shortened to “full-length transcript, percent”) [2, 6] is on record?
Its value is 11%.

And the “full-length transcript, percent” value [2, 7]?
The value was 37%.

And the “full-length transcript, percent” value [2, 8]?
Its value is 45%.

What about the “full-length transcript, percent” value [2, 9] of the same molecule?
Its value is 64%.

What about the “full-length transcript, percent” value [2, 10] of the same molecule?
The value was 25%.

What about the “full-length transcript, percent” value [2, 11] of the same molecule?
Its value is 70%.

What about the “full-length transcript, percent” value [2, 12] of the same molecule?
The value was 26%.

What about the “full-length transcript, percent” value [2, 13] of the same molecule?
Its value is 54%.

And the “full-length transcript, percent” value [2, 14]?
The value was 292%.

What about the “full-length transcript, percent” value [2, 15] of the same molecule?
The value was 264%.

What about the “full-length transcript, percent” value [2, 16] of the same molecule?
Its value is 109%.

What about the “full-length transcript, percent” value [2, 17] of the same molecule?
Its value is 244%.

And the “% ribo control” value [1, 18]?
Its value is 59%.

And the “percentage of incorporation compared to the all-RNA control” value (shortened to “percentage of incorporation”) [3, 19]?
The value was 9.5* %.

What about the “percentage of incorporation” value [3, 20] of the same molecule?
Its value is 232.7%.

Which “% ribo control” value [1] does the source give for 2′-deoxy-2′-amino-UTP [2′-NH2—UTP] here?
The value was 39%.

Which “full-length transcript, percent” value [2, 6] does the source give for `Nc1ncnc2c1ncn2[C@@H]1O[C@H](COP(=O)(O)OP(=O)(O)OP(=O)(O)O)[C@@H](O)[C@H]1F` [2′-F—ATP, 2′-deoxy-2′-fluoro-adenine triphosphate] here?
The value was 227%.

And the “full-length transcript, percent” value [2, 7]?
The value was 252%.

What about the “full-length transcript, percent” value [2, 8] of the same molecule?
Its value is 98%.

What about the “full-length transcript, percent” value [2, 9] of the same molecule?
The value was 103%.

What about the “full-length transcript, percent” value [2, 10] of the same molecule?
The value was 100%.

What about the “full-length transcript, percent” value [2, 11] of the same molecule?
Its value is 116%.

What about the “full-length transcript, percent” value [2, 12] of the same molecule?
Its value is 288%.

And the “full-length transcript, percent” value [2, 13]?
The value was 278%.

And the “full-length transcript, percent” value [2, 14]?
The value was 471%.

And the “full-length transcript, percent” value [2, 15]?
The value was 198%.

And the “full-length transcript, percent” value [2, 16]?
Its value is 317%.

What about the “full-length transcript, percent” value [2, 17] of the same molecule?
Its value is 185%.

And the “percentage of incorporation” value [3, 21]?
The value was 4%.

What about the “percentage of incorporation” value [3, 22] of the same molecule?
Its value is 222.6%.

Which results are given for `O=c1ccn([C@@H]2O[C@H](COP(=O)(O)OP(=O)(O)OP(=O)(O)O)[C@@H](O)[C@H]2F)c(=O)[nH]1` [2′-F—UTP, 2′-deoxy-2′-fluoro-uridine triphosphate]?
full-length transcript, percent compared to all-rNTP control [2]: 100%; activity at 2000 µM ([1]; 1 h): 100%

Which “full-length transcript, percent” value [2] does the source give for `Nc1nc(N)c2ncn([C@@H]3O[C@H](CO)C(O)C3N)c2n1` (stereo partly drawn) [2′-NH2—DAP, 2′-deoxy-2′amino-2,6-diaminopurine riboside] here?
Its value is 0% and 1%.

And the “percentage of incorporation” value [3]?
Its value is 8.9* % and 9.6%.

Which activity at 2000 µM [1, 23] does the source give for `CSCO[C@@H]1[C@H](O)[C@@H](COP(=O)(O)OP(=O)(O)OP(=O)(O)O)O[C@H]1n1ccc(=O)[nH]c1=O` [2′-O-MTM-UTP, 2′-O-methylthiomethyl-uridine-5 ′-triphosphate] here?
Its activity at 2000 µM is 64%.

Which results are given for `CSCO[C@@H]1[C@H](O)[C@@H](CO)O[C@H]1n1cnc2c(N)ncnc21` [2′-O—MTM—ATP, 2′-O-methylthiomethyl adenosine]?
full-length transcript, percent compared to all-rNTP control [2]: 0% and 1%; activity at 2000 µM [1, 18]: 1%

Which “full-length transcript, percent” value [2] does the source give for `CSCO[C@@H]1[C@H](O)[C@@H](CO)O[C@H]1n1ccc(N)nc1=O` [2′-O—MTM—CTP, 2′-O-methylthiomethyl cytidine] here?
The value was 2% and 4% and 5% and 3% and 1%.

What about the “percentage of incorporation” value [3] of the same molecule?
The value was 5.9% and 5.1%.

Which “full-length transcript, percent” value [2] does the source give for `CSCO[C@@H]1[C@H](O)[C@@H](CO)O[C@H]1n1cnc2c(=O)[nH]c(N)nc21` [2′-O—MTM—GTP, 2′-O-methylthiomethyl guanosine] here?
Its value is 6% and 3% and 1% and 4% and 2% and 0%.

And the activity at 2000 µM [1, 23]?
The activity at 2000 µM was 3%.

Which “full-length transcript, percent” value [2] does the source give for `CO[C@@H]1[C@H](O)[C@@H](COP(=O)(O)OP(=O)(O)OP(=O)(O)O)O[C@H]1n1cnc2c(N)ncnc21` [2′-O—Me—ATP] here?
Its value is 0% and 2% and 1%.

Which results are given for `COC1C(O)[C@@H](CO)O[C@H]1n1cnc2c(N)nc(N)nc21` (stereo partly drawn) [2′-O—Me—DAP, 2′-O-methyl-2,6-diaminopurine riboside]?
full-length transcript, percent compared to all-rNTP control [2]: 4% and 5% and 3%; percentage of incorporation compared to the all-RNA control [3]: 1.9% and 5.7%

Which “full-length transcript, percent” value [2] does the source give for `CO[C@@H]1[C@H](O)[C@@H](COP(=O)(O)OP(=O)(O)OP(=O)(O)O)O[C@H]1n1cnc2c(=O)[nH]c(N)nc21` [2′-O—Me—GTP, 2′-O-methyl-guanosine-5′-Triphosphate] here?
Its value is 4% and 5% and 3% and 2%.

What about the activity at 2000 µM ([1]; 1 h) of the same molecule?
The activity at 2000 µM was 3%.

With `NO[C@@H]1[C@H](O)[C@@H](CO)O[C@H]1n1ccc(=O)[nH]c1=O` [2′-O—NH2—UTP, 2′-O-amino-uridine] as the molecule, how does the activity at 2000 µM [1, 23] read?
The activity at 2000 µM was 1%.

For `Nc1ncnc2c1ncn2[C@H]1C[C@H](O)[C@@H](COP(=O)(O)OP(=O)(O)OP(=O)(O)O)O1` [2′-dATP], which “full-length transcript, percent” value [2, 6] is on record?
Its value is 9%.

And the “full-length transcript, percent” value [2, 7]?
Its value is 3%.

And the “full-length transcript, percent” value [2, 8]?
The value was 19%.

And the “full-length transcript, percent” value [2, 9]?
The value was 23%.

What about the “full-length transcript, percent” value [2, 10] of the same molecule?
The value was 9%.

What about the “full-length transcript, percent” value [2, 11] of the same molecule?
Its value is 24%.

What about the “full-length transcript, percent” value [2, 12] of the same molecule?
The value was 6%.

What about the “full-length transcript, percent” value [2, 13] of the same molecule?
Its value is 3%.

And the “full-length transcript, percent” value [2, 14]?
The value was 84%.

What about the “full-length transcript, percent” value [2, 15] of the same molecule?
The value was 70%.

What about the “full-length transcript, percent” value [2, 16] of the same molecule?
Its value is 28%.

What about the “full-length transcript, percent” value [2, 17] of the same molecule?
Its value is 51%.

And the “percentage of incorporation” value [3, 21]?
The value was 2.3%.

What about the “percentage of incorporation” value [3, 22] of the same molecule?
Its value is 146.3%.

Which activity at 2000 µM [1, 23] does the source give for `NCCC(=O)N[C@@H]1[C@H](O)[C@@H](CO)O[C@H]1n1ccc(=O)[nH]c1=O` [2′-β NH2-ala-UTP, 2′-(N-β-alanyl)amino-2′-deoxy uridine] here?
The activity at 2000 µM was 3%.

Which results are given for `COC1C(O)[C@@H](CO)O[C@H]1n1cc(CCCN)c(=O)[nH]c1=O` (stereo partly drawn) [5-(3-aminopropyl)-2′-O-methyl uridine]?
full-length transcript, percent compared to all-rNTP control [2]: 4% and 10%; activity at 2000 µM [1, 18]: 0%

Which “percentage of incorporation” value [3, 21] does the source give for `Nc1ncnc2c1ncn2[C@@H]1O[C@H](COP(=O)(O)OP(=O)(O)OP(=O)(O)O)[C@@H](O)[C@H]1O` [ATP] here?
The value was 15.7%.

What about the “percentage of incorporation” value [3, 22] of the same molecule?
The value was 100%.

What does the source list for `Nc1ccn([C@@H]2O[C@H](COP(=O)(O)OP(=O)(O)OP(=O)(O)O)[C@@H](O)[C@H]2O)c(=O)n1` [CTP]?
percentage of incorporation compared to the all-RNA control [3, 19]: 16.1%; percentage of incorporation compared to the all-RNA control [3, 20]: 100%

With `CC(N)C(=O)NC1C(O)[C@@H](CO)O[C@H]1n1ccc(=O)[nH]c1=O` (stereo partly drawn) [ala-2′-NH2—UTP, 2′-(N-alanyl) amino-2′-deoxy-uridine] as the molecule, how does the activity at 2000 µM [1, 23] read?
Its activity at 2000 µM is 2%.

With `CC(=O)O[C@H]1C(=O)[C@@]2(C)[C@H]([C@H](OC(=O)c3ccccc3)[C@]3(O)C[C@H](OC(=O)[C@H](O)[C@@H](NC(=O)c4ccccc4)c4ccccc4)C(C)=C1C3(C)C)[C@]1(OC(C)=O)CO[C@@H]1C[C@@H]2O` [paclitaxel] as the molecule, how does the “inhibition of tumor growth” value [4] read?
The value was 35%.

What does the source list for `NC(Cc1ccccc1)C(=O)NC1C(O)[C@@H](CO)O[C@H]1n1ccc(=O)[nH]c1=O` (stereo partly drawn) [phe-2′-NH2—UTP, 2′-(N-phenylalanyl)amino-2′-deoxy-uridine]?
full-length transcript, percent compared to all-rNTP control [2]: 8% and 6% and 10% and 12% and 7% and 4%; activity at 2000 µM [1, 23]: 1%

Which “reduction of breast cancer incidence” value [5] does the source give for `CC/C(=C(\c1ccccc1)c1ccc(OCCN(C)C)cc1)c1ccccc1` [tamoxifen] here?
Its value is 49%.
